Tested on: S. aureus 8588
Assay: Effectiveness against S. aureus 8588 (absorbance, Mueller-Hinton broth)
Format: cell-based
Conditions: 0.01 mg/ml ampicillin (below MIC)
Excerpt: The absorbance readings of treatments above the MIC were similar to the negative control of Mueller-Hinton broth alone indicating no bacterial growth.
The absorbance readings of the phage K treated wells were similar to the negative control Mueller-Hinton broth alone.

SMILES: CC1(C)S[C@@H]2[C@H](NC(=O)[C@H](N)c3ccccc3)C(=O)N2[C@H]1C(=O)O [ampicillin]
- effect on bacterial growth: has some effect on bacterial growth but is not totally effective
